Several values for one entry are separate records, joined by “and”; a condition that tells them apart may be missing. Identical values can stand only once.
Columns and labels:
[1] = target: NSD2 (T1150A) (Homo sapiens, UniProt O96028, T1150A); test: Radioisotope-based methyltransferase assay (selectivity)
[2] = target: NSD2 (E1099K) (Homo sapiens, UniProt O96028, E1099K)
[3] = Body weight of mice during 5-week administration; format: in vivo
Description: The dosing solution contained 15% DMSO, 17.5% Cremophor EL, 8.75% EtOH, 8.75% HCO-40, and 50% PBS. Blood samples were collected once a week by Retro Orbital Sampling (75 μL Calibrated Micropipette; Drummond Scientific Company) during isoflurane anesthesia. Blood RNA was extracted using NucleoSpin RNA Blood (Takara Bio Inc.). The weight of each mouse was measured every 3 or 4 days.

[4] = target: MLL2; test: Radioisotope-based methyltransferase assay (selectivity); conditions: MLL2, 1 μM SAM
[5] = target: EZH2 (Homo sapiens, UniProt Q15910); test: biochemical
Sequence of EZH2 (Q15910 whole entry): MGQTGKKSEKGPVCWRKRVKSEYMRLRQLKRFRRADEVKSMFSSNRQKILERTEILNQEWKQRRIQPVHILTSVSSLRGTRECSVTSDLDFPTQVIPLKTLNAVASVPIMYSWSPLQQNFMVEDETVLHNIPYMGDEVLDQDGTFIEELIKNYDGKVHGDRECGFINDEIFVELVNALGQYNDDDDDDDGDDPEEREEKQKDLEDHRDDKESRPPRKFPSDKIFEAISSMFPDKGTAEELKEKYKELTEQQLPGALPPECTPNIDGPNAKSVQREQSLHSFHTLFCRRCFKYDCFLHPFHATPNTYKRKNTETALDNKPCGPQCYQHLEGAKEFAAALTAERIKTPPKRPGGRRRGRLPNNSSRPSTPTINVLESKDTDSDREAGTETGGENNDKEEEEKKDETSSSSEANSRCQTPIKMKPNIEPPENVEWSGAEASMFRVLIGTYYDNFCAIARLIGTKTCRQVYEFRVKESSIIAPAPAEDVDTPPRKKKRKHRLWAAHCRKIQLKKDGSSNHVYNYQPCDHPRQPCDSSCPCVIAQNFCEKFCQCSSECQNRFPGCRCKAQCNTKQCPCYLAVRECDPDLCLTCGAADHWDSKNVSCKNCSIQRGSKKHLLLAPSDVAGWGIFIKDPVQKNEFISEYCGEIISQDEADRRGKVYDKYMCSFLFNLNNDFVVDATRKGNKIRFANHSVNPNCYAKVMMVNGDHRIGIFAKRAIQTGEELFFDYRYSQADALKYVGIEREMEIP
Sequence of EZH2 (O75530 whole entry partner): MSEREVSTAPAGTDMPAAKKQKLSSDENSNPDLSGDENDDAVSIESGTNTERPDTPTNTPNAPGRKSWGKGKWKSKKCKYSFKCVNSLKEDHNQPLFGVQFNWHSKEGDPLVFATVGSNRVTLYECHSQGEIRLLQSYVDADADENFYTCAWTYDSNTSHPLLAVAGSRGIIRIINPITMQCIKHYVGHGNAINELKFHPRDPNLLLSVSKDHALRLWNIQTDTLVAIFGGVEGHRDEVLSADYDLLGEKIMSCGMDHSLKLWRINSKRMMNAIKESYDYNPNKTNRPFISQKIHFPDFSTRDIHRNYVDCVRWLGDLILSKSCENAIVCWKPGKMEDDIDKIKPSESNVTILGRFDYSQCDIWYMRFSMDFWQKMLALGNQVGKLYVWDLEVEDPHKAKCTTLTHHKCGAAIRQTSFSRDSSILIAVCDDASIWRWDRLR
Sequence of EZH2 (Q15022 whole entry partner): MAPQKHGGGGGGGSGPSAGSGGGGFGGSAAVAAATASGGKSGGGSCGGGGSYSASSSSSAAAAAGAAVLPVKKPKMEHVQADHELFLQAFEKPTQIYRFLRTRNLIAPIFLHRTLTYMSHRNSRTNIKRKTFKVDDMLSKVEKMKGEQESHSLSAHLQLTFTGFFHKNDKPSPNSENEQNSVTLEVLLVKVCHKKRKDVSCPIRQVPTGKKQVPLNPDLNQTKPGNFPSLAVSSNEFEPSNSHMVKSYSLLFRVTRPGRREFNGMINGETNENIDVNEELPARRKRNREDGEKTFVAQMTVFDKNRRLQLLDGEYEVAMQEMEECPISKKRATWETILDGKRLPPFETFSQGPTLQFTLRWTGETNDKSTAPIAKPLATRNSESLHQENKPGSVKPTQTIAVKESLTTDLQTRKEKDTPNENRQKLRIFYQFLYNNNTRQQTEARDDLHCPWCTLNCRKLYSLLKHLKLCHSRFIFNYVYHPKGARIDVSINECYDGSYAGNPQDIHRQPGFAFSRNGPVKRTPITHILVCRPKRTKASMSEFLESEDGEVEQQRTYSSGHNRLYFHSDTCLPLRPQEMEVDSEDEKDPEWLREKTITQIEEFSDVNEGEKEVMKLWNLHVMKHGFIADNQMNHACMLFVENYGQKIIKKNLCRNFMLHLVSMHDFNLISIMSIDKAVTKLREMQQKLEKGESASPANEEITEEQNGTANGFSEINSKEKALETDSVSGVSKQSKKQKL
Sequence of EZH2 (Q09028 whole entry partner): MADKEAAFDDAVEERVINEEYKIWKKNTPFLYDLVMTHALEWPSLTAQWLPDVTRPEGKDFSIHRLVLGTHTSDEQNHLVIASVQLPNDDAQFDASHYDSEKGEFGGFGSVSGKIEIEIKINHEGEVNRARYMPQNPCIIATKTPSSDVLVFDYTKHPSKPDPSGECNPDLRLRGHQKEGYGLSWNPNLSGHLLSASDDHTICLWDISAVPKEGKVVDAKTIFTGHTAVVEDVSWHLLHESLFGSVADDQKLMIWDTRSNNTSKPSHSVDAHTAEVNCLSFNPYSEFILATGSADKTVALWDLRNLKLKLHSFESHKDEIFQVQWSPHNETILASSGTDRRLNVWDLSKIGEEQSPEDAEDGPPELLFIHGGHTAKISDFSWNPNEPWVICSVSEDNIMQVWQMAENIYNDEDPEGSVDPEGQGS
Sequence of EZH2 (Q6ZN18 whole entry partner): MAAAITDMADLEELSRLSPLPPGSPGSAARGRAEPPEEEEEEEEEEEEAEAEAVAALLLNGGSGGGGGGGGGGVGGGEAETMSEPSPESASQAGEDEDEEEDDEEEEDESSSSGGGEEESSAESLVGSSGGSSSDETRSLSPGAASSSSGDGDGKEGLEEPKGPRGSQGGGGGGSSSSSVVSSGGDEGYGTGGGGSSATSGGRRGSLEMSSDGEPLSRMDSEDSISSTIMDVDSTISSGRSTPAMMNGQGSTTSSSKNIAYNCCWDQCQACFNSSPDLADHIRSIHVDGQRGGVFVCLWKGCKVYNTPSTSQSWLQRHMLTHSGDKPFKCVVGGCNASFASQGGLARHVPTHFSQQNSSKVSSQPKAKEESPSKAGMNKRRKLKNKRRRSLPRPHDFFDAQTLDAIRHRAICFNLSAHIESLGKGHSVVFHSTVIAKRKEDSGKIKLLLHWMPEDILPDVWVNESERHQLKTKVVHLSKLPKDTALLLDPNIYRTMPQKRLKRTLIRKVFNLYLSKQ

[6] = Mouse acute toxicity assay, body weight; format: in vivo, mice
Description: All animal studies were approved by the Institutional Committee for Animal Experiments of the Institute of Microbial Chemistry, and were performed in accordance with relevant guidelines and regulations to minimize animal suffering. Four-week-old female ICR mice were purchased from Charles River Breeding Laboratories (Yokohama, Japan) and maintained in a specific pathogen-free barrier facility. […] Samples were dissolved in saline containing 10% DMSO and 1% Tween 80 and injected intravenously into mice.

[7] = target: PRMT6 (Homo sapiens, UniProt Q96LA8)
Sequence of PRMT6 (Q96LA8 whole entry): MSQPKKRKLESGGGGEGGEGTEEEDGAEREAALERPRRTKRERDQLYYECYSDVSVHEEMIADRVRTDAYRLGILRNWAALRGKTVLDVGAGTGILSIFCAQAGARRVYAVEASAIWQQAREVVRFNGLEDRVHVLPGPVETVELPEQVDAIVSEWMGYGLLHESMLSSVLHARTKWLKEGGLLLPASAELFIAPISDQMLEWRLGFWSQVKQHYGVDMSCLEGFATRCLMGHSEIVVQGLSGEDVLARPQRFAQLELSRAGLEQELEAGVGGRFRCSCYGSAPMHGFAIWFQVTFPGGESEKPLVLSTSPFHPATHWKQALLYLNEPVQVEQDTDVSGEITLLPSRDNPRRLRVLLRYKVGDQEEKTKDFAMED

[8] = target: MLL2 (Homo sapiens, UniProt O14686); test: Radioisotope-based methyltransferase assay (selectivity); conditions: MLL2, 1 μM SAM

Sequence of NSD2 (T1150A) (O96028 whole entry T1150A): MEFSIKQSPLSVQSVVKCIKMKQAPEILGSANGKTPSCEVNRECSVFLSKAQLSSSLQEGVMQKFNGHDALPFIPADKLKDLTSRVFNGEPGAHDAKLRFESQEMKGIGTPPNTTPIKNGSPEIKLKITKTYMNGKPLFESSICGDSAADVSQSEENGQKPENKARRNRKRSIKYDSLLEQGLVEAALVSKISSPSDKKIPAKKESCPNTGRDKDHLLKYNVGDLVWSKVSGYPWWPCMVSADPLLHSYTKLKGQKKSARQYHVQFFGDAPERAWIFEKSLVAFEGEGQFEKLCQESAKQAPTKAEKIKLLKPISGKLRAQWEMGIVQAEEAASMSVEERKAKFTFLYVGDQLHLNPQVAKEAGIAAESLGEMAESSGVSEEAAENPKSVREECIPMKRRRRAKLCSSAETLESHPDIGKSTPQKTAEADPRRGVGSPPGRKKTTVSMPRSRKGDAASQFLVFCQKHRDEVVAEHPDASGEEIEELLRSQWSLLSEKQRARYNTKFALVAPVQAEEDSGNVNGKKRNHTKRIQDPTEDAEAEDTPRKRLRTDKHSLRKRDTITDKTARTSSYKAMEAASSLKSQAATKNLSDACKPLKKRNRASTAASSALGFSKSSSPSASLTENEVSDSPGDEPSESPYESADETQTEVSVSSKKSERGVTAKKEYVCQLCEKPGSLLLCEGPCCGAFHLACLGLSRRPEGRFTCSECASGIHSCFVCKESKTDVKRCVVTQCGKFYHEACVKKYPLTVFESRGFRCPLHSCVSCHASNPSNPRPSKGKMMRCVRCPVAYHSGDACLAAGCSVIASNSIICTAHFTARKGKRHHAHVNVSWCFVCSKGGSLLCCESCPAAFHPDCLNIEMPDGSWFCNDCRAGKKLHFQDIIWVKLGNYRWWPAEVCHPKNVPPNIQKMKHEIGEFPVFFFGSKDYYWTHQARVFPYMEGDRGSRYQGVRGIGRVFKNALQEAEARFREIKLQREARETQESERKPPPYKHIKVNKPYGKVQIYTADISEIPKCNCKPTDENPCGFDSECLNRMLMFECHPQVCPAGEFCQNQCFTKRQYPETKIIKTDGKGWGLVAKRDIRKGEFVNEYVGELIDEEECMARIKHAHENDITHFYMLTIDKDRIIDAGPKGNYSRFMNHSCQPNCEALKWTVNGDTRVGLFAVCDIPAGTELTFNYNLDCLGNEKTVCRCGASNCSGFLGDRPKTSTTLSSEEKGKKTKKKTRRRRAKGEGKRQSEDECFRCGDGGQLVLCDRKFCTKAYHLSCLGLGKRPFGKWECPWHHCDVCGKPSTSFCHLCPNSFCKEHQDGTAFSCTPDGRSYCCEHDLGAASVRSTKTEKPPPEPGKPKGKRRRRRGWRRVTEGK
Sequence of NSD2 (E1099K) (O96028 whole entry E1099K): as the sequence (O96028 whole entry T1150A) above, with E1099K, A1150T counted along it

## Cc1c(C(=O)NC(CCC2CC2)C(=O)Nc2ccc(C#N)cc2)[nH]c2c1C(=O)CC(C)(C)C2 (stereo not drawn) [RK-701]
[1]
  IC50: > 100 µM
[2]
  IC50: > 100 µM
[3]; 20 mg/kg i.p., Day 0
  body weight of individual mice: 17.8 g and 17.5 g and 16.8 g and 16.2 g and 16.4 g
[3]; 20 mg/kg i.p., Day 4
  body weight of individual mice: 18.5 g and 17.7 g and 17.3 g and 17.2 g and 16.8 g and 17.4 g
[3]; 20 mg/kg i.p., Day 8
  body weight of individual mice: 18.4 g and 18.1 g and 17.4 g and 17.7 g and 16.7 g and 17.8 g
[3]; 20 mg/kg i.p., Day 11
  body weight of individual mice: 18.6 g and 18.2 g and 17.5 g and 17.6 g and 16.5 g and 17.1 g
[3]; 20 mg/kg i.p., Day 15
  body weight of individual mice: 18.7 g and 18.1 g and 17.7 g and 18.2 g and 16.6 g
[3]; 20 mg/kg i.p., Day 18
  body weight of individual mice: 19.3 g and 18.2 g and 17.8 g and 16.6 g
[3]; 20 mg/kg i.p., Day 22
  body weight of individual mice: 18 g and 19 g and 18.5 g and 17 g and 18.6 g
[3]; 20 mg/kg i.p., Day 25
  body weight of individual mice: 20.2 g and 19.5 g and 17.7 g and 18.3 g and 17.8 g and 18.8 g
[3]; 20 mg/kg i.p., Day 29
  body weight of individual mice: 20.4 g and 18.2 g and 19.8 g and 18.7 g and 16 g and 18.5 g
[3]; 20 mg/kg i.p., Day 32
  body weight of individual mice: 19.9 g and 20 g and 19 g and 19.7 g and 19.6 g
[3]; 50 mg/kg i.p., Day 0
  body weight of individual mice: 14.7 g and 16.5 g and 17.3 g and 16.4 g and 17.4 g
[3]; 50 mg/kg i.p., Day 4
  body weight of individual mice: 15.3 g and 18.3 g and 17.7 g and 17.3 g and 17.8 g
[3]; 50 mg/kg i.p., Day 8
  body weight of individual mice: 14.8 g and 17.7 g and 18.3 g and 18.1 g
[3]; 50 mg/kg i.p., Day 11
  body weight of individual mice: 16 g and 18 g and 18.7 g and 17.9 g and 18.5 g
[3]; 50 mg/kg i.p., Day 15
  body weight of individual mice: 15 g and 18 g and 19.1 g and 17.9 g and 18.5 g
[3]; 50 mg/kg i.p., Day 18
  body weight of individual mice: 15.1 g and 18.4 g and 19.3 g and 19.5 g
[3]; 50 mg/kg i.p., Day 22
  body weight of individual mice: 15.5 g and 18.9 g and 19.7 g and 19.8 g
[3]; 50 mg/kg i.p., Day 25
  body weight of individual mice: 16.7 g and 19.1 g and 20.6 g and 19.9 g and 20.4 g
[3]; 50 mg/kg i.p., Day 29
  body weight of individual mice: 16.3 g and 18.4 g and 19.6 g and 19 g and 20 g
[3]; 50 mg/kg i.p., Day 32
  body weight of individual mice: 16.7 g and 19.5 g and 21.2 g and 20 g
[3]; five-week continuous administration
  mouse body weights: no effect on mouse body weights
[4]
  IC50: > 100 µM
[5]
  IC50: > 100 µM
[6]; 12.5 mg/kg, Day0
  The body weight of individual mice: 24.94 g
[6]; 12.5 mg/kg, Day1
  The body weight of individual mice: 24.39 g
[6]; 12.5 mg/kg, Day3
  The body weight of individual mice: 26.32 g and 24.79 g
[6]; 12.5 mg/kg, Day5
  The body weight of individual mice: 26.12 g and 25.27 g and 26.24 g
[6]; 12.5 mg/kg, Day7
  The body weight of individual mice: 26.84 g and 25.44 g and 25.63 g
[6]; 12.5 mg/kg, Day9
  The body weight of individual mice: 26.98 g and 26.32 g and 26.65 g
[6]; 12.5 mg/kg, Day11
  The body weight of individual mice: 27.95 g and 26.07 g and 25.28 g
[6]; 12.5 mg/kg, Day14
  The body weight of individual mice: 27.71 g and 26.81 g and 27.50 g
[6]; 25 mg/kg, Day0
  The body weight of individual mice: 23.49 g and 24.32 g and 24.36 g
[6]; 25 mg/kg, Day1
  The body weight of individual mice: 23.24 g and 25.05 g and 21.93 g
[6]; 25 mg/kg, Day2
  The body weight of individual mice: 24.39 g and 26.13 g and 23.16 g
[6]; 25 mg/kg, Day3
  The body weight of individual mice: 24.09 g and 26.66 g and 23.50 g
[6]; 25 mg/kg, Day4
  The body weight of individual mice: 24.79 g and 27.09 g and 24.50 g
[6]; 25 mg/kg, Day5
  The body weight of individual mice: 25.11 g and 26.53 g and 25.43 g
[6]; 25 mg/kg, Day7
  The body weight of individual mice: 25.92 g and 26.25 g and 25.57 g
[6]; 25 mg/kg, Day9
  The body weight of individual mice: 25.69 g and 26.57 g and 26.31 g
[6]; 25 mg/kg, Day11
  The body weight of individual mice: 26.68 g and 27.09 g and 27.51 g
[6]; 25 mg/kg, Day14
  The body weight of individual mice: 26.24 g and 26.26 g and 28.11 g
[6]; 50 mg/kg, Day0
  The body weight of individual mice: 22.18 g and 23.36 g and 23.10 g
[6]; 50 mg/kg, Day1
  The body weight of individual mice: 22.71 g and 22.55 g and 24.93 g
[6]; 50 mg/kg, Day2
  The body weight of individual mice: 23.39 g and 22.67 g and 25.00 g
[6]; 50 mg/kg, Day3
  The body weight of individual mice: 24.41 g and 22.89 g and 25.00 g
[6]; 50 mg/kg, Day4
  The body weight of individual mice: 24.33 g and 23.75 g and 26.48 g
[6]; 50 mg/kg, Day5
  The body weight of individual mice: 24.37 g and 24.57 g and 26.83 g
[6]; 50 mg/kg, Day7
  The body weight of individual mice: 25.33 g and 23.96 g and 27.23 g
[6]; 50 mg/kg, Day9
  The body weight of individual mice: 25.95 g and 24.94 g and 26.92 g
[6]; 50 mg/kg, Day11
  The body weight of individual mice: 26.83 g and 25.42 g and 28.13 g
[6]; 50 mg/kg, Day14
  The body weight of individual mice: 27.45 g and 26.37 g and 28.85 g
[6]; 100 mg/kg, Day0
  The body weight of individual mice: 22.92 g and 23.08 g and 22.86 g
[6]; 100 mg/kg, Day1
  The body weight of individual mice: 21.12 g and 23.93 g and 21.40 g
[6]; 100 mg/kg, Day2
  The body weight of individual mice: 22.69 g and 24.09 g and 22.95 g
[6]; 100 mg/kg, Day3
  The body weight of individual mice: 23.07 g
[6]; mouse, in vivo, iv
  acute toxicity, body weight: no significant body weight loss
[7]
  IC50: > 100 µM

## Nc1ncnc2c1ncn2[C@@H]1O[C@H](CSCC[C@H](N)C(=O)O)[C@@H](O)[C@H]1O [SAH, S-(5'-Adenosyl)-L-homocysteine, reference compound]
[8]
  IC50: 11.6 µM

Source: article PMC9837035 (Nature Communications, 2023)
